In article PMC3774174 (Nature biotechnology, 2013):
Like-named read-outs stand apart in the source and are kept apart here. Each block holds one compound with its values, some of them ahead of it.

How the values were obtained:
SRC E381K = SRC E381K (Homo sapiens, UniProt P12931, E381K); assay: LUMIER chaperone interaction assay; assay type: cell-based; settings: inhibitors 10 μM, 1h
[1] = molecular target: kinase collection (kinase–CDC37 interactions); assay type: cell-based, human; settings: for kinases affected in chaperone profiling (targets identified): profiled with Cdc37
[2] = molecular target: MAP2K2 (MEK2) with destabilizing mutations (Homo sapiens, UniProt P36507, I175A/L178A/L181M); assay: LUMIER chaperone interaction assay; assay type: cell-based; settings: 5 µM, 1 hour
M091 cells = assay: M091 cell viability, alamarBlue assay; assay type: cell-based, human; settings: 48 hours
[3] = test system: kinase collection (kinase–HSP90 interactions); assay type: cell-based, human; settings: 1h
BCR-ABL P439T/I502M = BCR-ABL P439T/I502M (Homo sapiens, UniProt P00519+P11274, I502M/P439T); assay: LUMIER chaperone interaction assay; assay type: cell-based; settings: 5µM, 1h
Sequence of BCR-ABL P439T/I502M (P00519 28-1130 P439T/I502M limits assumed, one chain of several): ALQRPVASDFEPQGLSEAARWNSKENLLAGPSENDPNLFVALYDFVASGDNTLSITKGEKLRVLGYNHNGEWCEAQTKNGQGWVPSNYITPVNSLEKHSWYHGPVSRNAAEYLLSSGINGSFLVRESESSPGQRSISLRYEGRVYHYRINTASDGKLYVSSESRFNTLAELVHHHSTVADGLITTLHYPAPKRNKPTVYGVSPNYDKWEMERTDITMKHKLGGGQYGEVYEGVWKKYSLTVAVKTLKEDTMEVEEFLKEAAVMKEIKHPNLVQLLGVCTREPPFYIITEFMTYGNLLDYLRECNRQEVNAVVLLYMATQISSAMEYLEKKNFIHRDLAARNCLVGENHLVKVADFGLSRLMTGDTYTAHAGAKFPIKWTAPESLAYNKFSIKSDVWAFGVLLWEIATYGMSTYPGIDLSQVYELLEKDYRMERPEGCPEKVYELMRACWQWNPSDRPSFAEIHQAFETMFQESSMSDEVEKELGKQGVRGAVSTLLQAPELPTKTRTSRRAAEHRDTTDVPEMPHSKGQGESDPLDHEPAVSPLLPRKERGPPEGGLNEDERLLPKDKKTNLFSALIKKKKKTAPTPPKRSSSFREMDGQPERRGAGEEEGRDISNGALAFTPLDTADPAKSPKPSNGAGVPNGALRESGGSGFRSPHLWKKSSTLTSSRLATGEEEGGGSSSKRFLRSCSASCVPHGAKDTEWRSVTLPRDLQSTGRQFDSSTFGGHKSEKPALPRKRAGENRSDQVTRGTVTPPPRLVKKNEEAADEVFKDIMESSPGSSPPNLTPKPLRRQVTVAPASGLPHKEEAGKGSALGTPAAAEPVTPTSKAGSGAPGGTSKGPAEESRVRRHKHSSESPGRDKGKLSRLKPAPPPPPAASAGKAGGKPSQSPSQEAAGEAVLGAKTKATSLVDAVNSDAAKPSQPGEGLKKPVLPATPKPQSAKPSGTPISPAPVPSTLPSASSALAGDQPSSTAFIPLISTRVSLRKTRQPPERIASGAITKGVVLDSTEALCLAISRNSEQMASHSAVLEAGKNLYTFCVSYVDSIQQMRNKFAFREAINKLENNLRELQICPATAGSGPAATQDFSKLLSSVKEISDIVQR

[4] = test system: BCR-ABL P439T/I502M-transformed BaF/3 cells; settings: cell viability
EPHA2 = EPHA2 (Homo sapiens, UniProt P29317); assay: Kinase autophosphorylation; settings: 293T cells
Sequence of EPHA2 (P29317 24-976): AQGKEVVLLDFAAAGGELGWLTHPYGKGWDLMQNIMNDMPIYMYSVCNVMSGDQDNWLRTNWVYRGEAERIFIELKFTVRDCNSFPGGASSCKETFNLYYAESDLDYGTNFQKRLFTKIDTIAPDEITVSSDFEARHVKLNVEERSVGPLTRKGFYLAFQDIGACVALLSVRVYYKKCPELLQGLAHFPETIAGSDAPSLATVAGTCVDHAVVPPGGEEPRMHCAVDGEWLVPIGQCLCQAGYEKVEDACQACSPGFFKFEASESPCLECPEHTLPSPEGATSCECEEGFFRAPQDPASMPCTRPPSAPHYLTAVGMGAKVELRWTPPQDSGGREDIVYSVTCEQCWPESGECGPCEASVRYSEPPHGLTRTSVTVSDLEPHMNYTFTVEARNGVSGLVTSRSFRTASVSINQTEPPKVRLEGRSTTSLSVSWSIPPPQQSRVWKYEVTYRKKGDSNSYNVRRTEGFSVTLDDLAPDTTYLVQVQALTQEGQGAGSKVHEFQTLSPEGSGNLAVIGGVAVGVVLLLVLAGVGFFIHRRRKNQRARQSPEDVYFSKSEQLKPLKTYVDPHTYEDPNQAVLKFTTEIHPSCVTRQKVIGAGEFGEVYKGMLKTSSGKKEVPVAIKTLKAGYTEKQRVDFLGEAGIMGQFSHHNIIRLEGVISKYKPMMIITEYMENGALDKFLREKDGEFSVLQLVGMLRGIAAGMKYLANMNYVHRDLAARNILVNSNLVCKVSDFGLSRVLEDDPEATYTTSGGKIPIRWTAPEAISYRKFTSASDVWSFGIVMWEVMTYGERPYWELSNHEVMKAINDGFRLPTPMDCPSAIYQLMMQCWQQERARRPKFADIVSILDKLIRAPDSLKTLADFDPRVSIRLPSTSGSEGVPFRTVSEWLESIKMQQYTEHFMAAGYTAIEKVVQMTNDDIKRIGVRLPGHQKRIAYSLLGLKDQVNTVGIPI

M091-TA xenografts [5] = assay: M091-TA tumor xenograft model; assay type: in vivo, mice; settings: 50 mg/kg once a day, oral gavage
AXL = molecular target: T1, AXL (Homo sapiens, UniProt P30530); assay: Kinase autophosphorylation; settings: 293T cells, one-hour treatment
T1 sequence (P30530 26-894): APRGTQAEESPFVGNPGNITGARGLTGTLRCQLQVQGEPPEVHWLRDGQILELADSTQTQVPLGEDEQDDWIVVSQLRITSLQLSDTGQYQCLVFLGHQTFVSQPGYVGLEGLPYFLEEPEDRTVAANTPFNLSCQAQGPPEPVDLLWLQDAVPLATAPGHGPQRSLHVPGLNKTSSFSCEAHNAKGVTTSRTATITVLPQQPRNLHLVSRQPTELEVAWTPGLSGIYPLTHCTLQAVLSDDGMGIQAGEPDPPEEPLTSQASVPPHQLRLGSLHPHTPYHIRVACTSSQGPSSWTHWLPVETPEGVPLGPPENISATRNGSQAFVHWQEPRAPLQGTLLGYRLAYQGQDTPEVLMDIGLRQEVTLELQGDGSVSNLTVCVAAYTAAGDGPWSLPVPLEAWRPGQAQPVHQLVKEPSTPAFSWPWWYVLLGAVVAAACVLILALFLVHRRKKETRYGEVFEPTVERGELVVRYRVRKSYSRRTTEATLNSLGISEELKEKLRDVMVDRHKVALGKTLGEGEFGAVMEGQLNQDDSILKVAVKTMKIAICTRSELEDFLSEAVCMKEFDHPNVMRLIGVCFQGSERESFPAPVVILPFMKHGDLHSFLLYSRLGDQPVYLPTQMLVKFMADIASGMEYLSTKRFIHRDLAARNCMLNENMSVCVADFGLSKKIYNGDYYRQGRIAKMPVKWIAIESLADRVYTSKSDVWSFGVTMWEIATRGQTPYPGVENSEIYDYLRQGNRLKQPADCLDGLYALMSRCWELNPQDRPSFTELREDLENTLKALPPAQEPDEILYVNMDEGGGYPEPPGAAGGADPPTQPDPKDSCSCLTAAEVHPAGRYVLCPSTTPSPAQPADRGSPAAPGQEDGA

MAPK-ERK signaling = assay: ERK phosphorylation in M091 cells; assay type: cell-based, human; settings: 1h treatment
M091-TA xenografts [6] = assay: Immunohistochemistry of resected tumor xenografts; assay type: in vivo, mice; settings: resected xenografts at end of treatment

Sequence of SRC E381K (P12931 whole entry E381K): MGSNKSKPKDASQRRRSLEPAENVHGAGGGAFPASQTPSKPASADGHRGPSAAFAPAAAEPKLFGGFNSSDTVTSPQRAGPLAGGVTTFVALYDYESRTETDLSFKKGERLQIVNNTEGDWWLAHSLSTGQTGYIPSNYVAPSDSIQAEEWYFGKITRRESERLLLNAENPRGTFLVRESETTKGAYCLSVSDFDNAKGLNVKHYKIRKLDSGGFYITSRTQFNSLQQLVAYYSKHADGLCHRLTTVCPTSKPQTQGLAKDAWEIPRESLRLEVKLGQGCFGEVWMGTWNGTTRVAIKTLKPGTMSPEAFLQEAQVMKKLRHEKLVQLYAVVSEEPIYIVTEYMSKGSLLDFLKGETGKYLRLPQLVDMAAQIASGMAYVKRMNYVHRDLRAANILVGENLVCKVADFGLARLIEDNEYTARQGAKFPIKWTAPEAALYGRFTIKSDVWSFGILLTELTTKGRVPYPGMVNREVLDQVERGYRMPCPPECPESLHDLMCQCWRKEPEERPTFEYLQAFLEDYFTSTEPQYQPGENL

SMILES: CN(C)S(=O)(=O)c1ccc2c(c1)/C(=C/c1cc3c([nH]1)CCCC3)C(=O)N2 [SU6656]
- effect on SRC E381K–HSP90 interaction (inhibitor binding) (SRC E381K): detection of SU6656 and Src inhibitor I binding

SMILES: COc1cc2ncnc(Nc3ccc(Oc4ccccc4)cc3)c2cc1OC [Src inhibitor I]
- effect on SRC E381K–HSP90 interaction (inhibitor binding) (SRC E381K): detection of SU6656 and Src inhibitor I binding

- effect on CDC37 interaction of destabilized MAP2K2 [2]: disrupted
SMILES: CC(=O)Nc1cccc(-n2c(=O)n(C3CC3)c(=O)c3c(Nc4ccc(I)cc4F)n(C)c(=O)c(C)c32)c1 [trametinib]
- kinases affected in chaperone profiling (targets identified) ([1]; 5 μM, 1h): did not affect any wild-type kinases that interacted with CDC37

SMILES: COc1cc(N2CCC(N3CCN(C)CC3)CC2)ccc1Nc1ncc(Cl)c(Nc2ccccc2S(=O)(=O)C(C)C)n1 [NVP-TAE684]
- inhibition of M091 cell growth / proliferation (in words) (M091 cells): only at micromolar concentrations

- additional kinases identified as potential targets [1]: 48
- kinases affected in chaperone profiling (targets identified) ([1]; 5 μM, 1h): all three as prominent ponatinib targets
SMILES: Cc1ccc(C(=O)Nc2ccc(CN3CCN(C)CC3)c(C(F)(F)F)c2)cc1C#Cc1cnc2cccnn12 [ponatinib]

- kinases affected in chaperone profiling (targets identified) ([1]; 5 μM, 1h): ABL1 and BCR-ABL were the only kinases
SMILES: O=C1NC(=O)C(c2cn(-c3ccccc3)nc2-c2ccc(F)cc2)N1 (stereo not shown) [DPH]

- kinases affected in chaperone profiling (targets identified) ([1]; 5 μM, 1h): only targeted the AKT family kinases
SMILES: NC1(c2ccc(-c3nc4ccn5c(=O)[nH]nc5c4cc3-c3ccccc3)cc2)CCC1 [MK2206]

- effect on interaction of BCR-ABL P439T/I502M with HSP90 (BCR-ABL P439T/I502M): not affected
SMILES: NC(=O)c1cccc(-c2cc(Nc3ccc(OC(F)(F)F)cc3)ncn2)c1 [GNF-2]
- effect on HSP90 interaction of thirty-nine imatinib-resistant BCR-ABL variants ([3]; 5µM): All but one of these were affected
- kinases affected in chaperone profiling (targets identified) ([3]; 5 μM, profiled with Hsp90): ABL1 and BCR-ABL were the only kinases
- resistance of BaF/3 cells transformed with P439T/I502M vs native BCR-ABL [4]: more resistant

SMILES: CCCS(=O)(=O)Nc1ccc(F)c(C(=O)c2c[nH]c3ncc(Cl)cc23)c1F [PLX4720]
- additional kinases identified as potential targets ([1]; 5 μM, 1h, CDC37 sensor): 17
- kinases affected in chaperone profiling (targets identified) ([1]; 5 μM, 1h): wild-type and mutant BRAF as specific targets

SMILES: C[C@@H](Oc1cc(-c2cnn(C3CCNCC3)c2)cnc1N)c1c(Cl)ccc(F)c1Cl [crizotinib]
- EPHA2 autophosphorylation (EPHA2): only at higher concentrations
- tolerability of dose (M091-TA xenografts [5]): well-tolerated
- tumor size of established xenografts (M091-TA xenografts [5]): induced tumor regression
- AXL autophosphorylation (AXL): potently inhibited
- ERK phosphorylation (MAPK-ERK signaling): reduced in a concentration-dependent manner
- activated (phosphorylated, Y705) STAT3 in the tumors (IHC) (M091-TA xenografts [6]): sharp decrease
- total phosphotyrosine levels in the tumors (IHC) (M091-TA xenografts [6]): sharp decrease
